Reference: PMC10383271

Columns and labels:
[1] = test system: normal human dermal fibroblasts (NHDF); test: MTT assay, viability of NHDF cell culture (ISO 10993 part 5); format: cell-based; conditions: NHDF cell cultures, 24 h incubation; for IC50: Homo sapiens, MTT, mean (± SD), n = 5
Experimental: The viability of the normal human dermal fibroblasts (NHDF) cell culture after 24 h incubation with the tested compounds 5a-c-7a-c was assessed by carrying out the MTT assay. This test was performed according to ISO 10993 part 5, Appendix C. For all tested compounds, the IC50 values were calculated using four-parameter logistics. Normal human dermal fibroblasts (NHDF) were purchased from the American Type Culture Collection (ATCC) for cytotoxicity evaluation of the tested compounds. The cells were grown in Dulbecco's Modified Eagle Medium DMEM with […] glucose without phenol red supplemented with 10% FBS and 2 mM L-glutamine, and 25 μg/mL gentamicin. The NHDF cells were cultured under standard conditions (5% CO2, 37 °C, and 95% humidity) with evaluation morphology and confluence at least twice a week. For the assay, the cells were used only in a logarithmic growth phase, and the TrypLE solution was used for 2 min at 37 °C to detach cells. Then, the TrypLE solution was inactivated by adding a culture medium, and the suspension of cells was collected into a tube and centrifuged for 5 min at 1000 rpm. Then, the supernatant was removed, fresh medium was added, and the pellet was resuspended and calculated using the […] chamber. The suspension of cells was prepared to allow seeding 10,000 cells/well density and incubated for 24 h to regenerate in CO2-incubator. The tested compounds were dissolved in DMSO to a final concentration of 10 mM and stored at -20 °C. Before use, the compound solution was kept at room temperature until thawing, and then, samples with 3 different concentrations of compounds were prepared (100 μM, 50 μM, and 10 μM) for each compound. The tested concentrations of compounds were prepared in a culture medium. […] The evaluation of the cytotoxicity of the newly synthesized compounds was carried out in accordance with the ISO 10,993 part V standard by performing the MTT test. After seeding at a density of 10,000 cells per well and adhering overnight, the NHDF cells were treated with the test compounds for 24 h in a CO2 incubator. The supernatant was then removed, the cells were washed with PBS, a 1mg/mL solution of MTT dissolved in MEM was added, and the cultures were re-incubated for 2 h in a CO2 incubator. The medium was then removed, and for a further 30 min, the formazan crystals were dissolved in 100 μL of isopropanol. The absorbance was measured with a Varioskan Go microplate reader at a wavelength of 570 nm. […] For enzyme assays, the IC50 was calculated according to the procedure provided by the kit manufacturer. The significance was set at p < 0.05. Based on the tests performed, the test power was calculated to be greater than 80%.

COX-1 = biological target: T1, COX-1 (Ovis aries, UniProt P05979); test: COX-1 inhibition, Cayman's COX Colorimetric Inhibitor Screening Assay Kit
T1 sequence (P05979 25-600): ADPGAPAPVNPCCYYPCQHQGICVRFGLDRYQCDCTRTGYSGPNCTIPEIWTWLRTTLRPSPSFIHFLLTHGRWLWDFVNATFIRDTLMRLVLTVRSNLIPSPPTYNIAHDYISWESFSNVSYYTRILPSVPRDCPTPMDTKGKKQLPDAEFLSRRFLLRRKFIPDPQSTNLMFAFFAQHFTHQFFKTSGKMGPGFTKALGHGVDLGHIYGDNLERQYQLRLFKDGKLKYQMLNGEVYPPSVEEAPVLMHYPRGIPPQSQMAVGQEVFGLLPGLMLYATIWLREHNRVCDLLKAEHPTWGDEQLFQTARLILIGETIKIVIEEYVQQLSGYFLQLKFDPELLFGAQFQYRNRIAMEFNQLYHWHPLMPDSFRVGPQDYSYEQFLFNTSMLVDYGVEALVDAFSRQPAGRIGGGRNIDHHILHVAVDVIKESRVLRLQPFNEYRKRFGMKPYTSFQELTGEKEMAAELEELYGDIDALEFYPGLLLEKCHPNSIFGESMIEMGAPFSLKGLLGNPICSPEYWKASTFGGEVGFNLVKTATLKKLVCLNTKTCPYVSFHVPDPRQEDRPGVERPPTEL

COX-2 = biological target: T2, COX-2 (Homo sapiens, UniProt P35354); test: COX-2 inhibition, Cayman's COX Colorimetric Inhibitor Screening Assay Kit; conditions: for Selectivity Index (SI): COX-2 IC50/COX-1 IC50
T2 sequence (P35354 18-604): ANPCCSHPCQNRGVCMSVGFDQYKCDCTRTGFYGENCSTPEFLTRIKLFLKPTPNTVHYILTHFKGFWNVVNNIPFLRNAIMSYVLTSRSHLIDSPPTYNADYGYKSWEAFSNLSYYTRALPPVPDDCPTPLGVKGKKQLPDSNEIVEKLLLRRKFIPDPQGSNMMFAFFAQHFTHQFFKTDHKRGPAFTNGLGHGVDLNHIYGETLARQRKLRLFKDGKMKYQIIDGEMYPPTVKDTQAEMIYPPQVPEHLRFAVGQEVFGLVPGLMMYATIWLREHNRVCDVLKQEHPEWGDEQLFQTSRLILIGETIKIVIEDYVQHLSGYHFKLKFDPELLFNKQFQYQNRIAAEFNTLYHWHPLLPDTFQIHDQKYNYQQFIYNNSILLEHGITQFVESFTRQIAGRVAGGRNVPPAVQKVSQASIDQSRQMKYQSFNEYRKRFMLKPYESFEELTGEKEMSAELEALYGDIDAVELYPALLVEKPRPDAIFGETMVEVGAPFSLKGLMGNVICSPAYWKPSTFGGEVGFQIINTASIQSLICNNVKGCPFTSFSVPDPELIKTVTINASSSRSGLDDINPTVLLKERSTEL

15-LOX = biological target: T3, 15-LOX (Glycine max, UniProt P08170); test: 15-LOX inhibition, Cayman's Lipoxygenase Inhibitor Screening Assay Kit
T3 sequence (P08170 1-839): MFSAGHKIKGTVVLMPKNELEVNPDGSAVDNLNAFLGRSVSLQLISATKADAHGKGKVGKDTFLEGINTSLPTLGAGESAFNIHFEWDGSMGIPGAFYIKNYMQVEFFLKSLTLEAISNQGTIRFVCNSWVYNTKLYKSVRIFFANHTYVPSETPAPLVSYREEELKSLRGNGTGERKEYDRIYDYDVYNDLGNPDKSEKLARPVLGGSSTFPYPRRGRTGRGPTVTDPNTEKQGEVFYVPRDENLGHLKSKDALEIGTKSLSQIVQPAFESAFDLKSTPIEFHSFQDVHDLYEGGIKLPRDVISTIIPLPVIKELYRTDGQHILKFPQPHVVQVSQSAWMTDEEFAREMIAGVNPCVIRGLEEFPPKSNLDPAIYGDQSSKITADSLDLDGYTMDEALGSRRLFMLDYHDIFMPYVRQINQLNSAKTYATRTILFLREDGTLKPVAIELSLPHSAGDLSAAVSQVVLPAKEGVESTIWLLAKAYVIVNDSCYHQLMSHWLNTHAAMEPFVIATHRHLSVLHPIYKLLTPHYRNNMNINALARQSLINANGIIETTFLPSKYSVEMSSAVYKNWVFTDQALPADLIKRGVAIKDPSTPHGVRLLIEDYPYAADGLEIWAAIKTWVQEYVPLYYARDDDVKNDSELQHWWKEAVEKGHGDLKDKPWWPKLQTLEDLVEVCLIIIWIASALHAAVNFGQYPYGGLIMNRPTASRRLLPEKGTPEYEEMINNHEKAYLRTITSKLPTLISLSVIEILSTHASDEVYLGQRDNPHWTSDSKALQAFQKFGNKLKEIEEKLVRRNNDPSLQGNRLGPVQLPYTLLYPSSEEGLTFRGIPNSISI

SMILES | IC50 [1] | Cell Morphology in Culture [1] | melting point | IC50 (COX-1) | IC50 (COX-2) | Selectivity Index (SI) (COX-2) | IC50 (15-LOX) | effect on COX-1 isoform (in words) (COX-1; enzymatic assay)
CCCCn1c(C)c2c(OCC(=O)N/N=C/c3ccccc3O)nn(C)c(=O)c2c1C [Compound 6a, 2-(6-butyl-3,5,7-trimethyl-4-oxo-pyrrolo[3,4-d]pyridazin-1-yl)oxy-N-[(Z/E)-(2-hydroxyphenyl)methyleneamino]acetamide] | 88.7 ± 4.1 µM | Cells with an elongated shape characteristic of fibroblasts, the granularities were observed in 3–5 fields of view from 10 analyzed fields. | 225 to 227 °C | 89.2 ± 4.1 µM | 16.4 ± 1.1 µM | 0.18 | 13.6 ± 0.03 µM | 
Cc1c2c(OCC(=O)N/N=C/c3ccccc3O)nn(C)c(=O)c2c(C)n1-c1ccccc1 [Compound 6b, N-[(Z/E)-(2-hydroxyphenyl)methyleneamino]-2-(3,5,7-trimethyl-4-oxo-6-phenyl-pyrrolo[3,4-d]pyridazin-1-yl)oxy-acetamide] | 80.7 ± 1.9 µM | Cells with an elongated shape characteristic of fibroblasts, the granularities were observed in 3–5 fields of view from 10 analyzed fields. | 214 to 217 °C | 97.7 ± 6.8 µM | 27.7 ± 2.5 µM | 0.28 | 13.7 ± 0.03 µM | 
Cc1c2c(OCC(=O)N/N=C/c3ccccc3O)nn(C)c(=O)c2c(C)n1-c1cccc(Cl)c1 [Compound 6c, 2-[6-(3-chlorophenyl)-3,5,7-trimethyl-4-oxo-pyrrolo[3,4-d]pyridazin-1-yl]oxy-N-[(Z/E)-(2-hydroxyphenyl)methyleneamino]acetamide] | 211 ± 9.6 µM | Normal morphology of fibroblasts–elongated cells, single granular cells in 1 of 10 assessed fields of view. | 230 to 232 °C | 76.8 ± 6 µM | 9.8 ± 3.1 µM | 0.13 | 14.7 ± 0.02 µM | 
CCCCn1c(C)c2c(OCC(=O)N/N=C/c3ccc(C)cc3)nn(C)c(=O)c2c1C [Compound 7a, 2-(6-butyl-3,5,7-trimethyl-4-oxo-pyrrolo[3,4-d]pyridazin-1-yl)oxy-N-[(Z/E)-p-tolylmethyleneamino]acetamide] | 116 ± 3.6 µM | Cells with an elongated shape characteristic of fibroblasts, the granularities were observed in 3–5 fields of view from 10 analyzed fields. | 209 to 211 °C | 93.8 ± 4.2 µM | 16.1 ± 1.8 µM | 0.17 | 15.3 ± 2.1 µM | 
Cc1ccc(/C=N/NC(=O)COc2nn(C)c(=O)c3c(C)n(-c4ccccc4)c(C)c23)cc1 [Compound 7b, N-[(Z/E)-p-tolylmethyleneamino]-2-(3,5,7-trimethyl-4-oxo-6-phenyl-pyrrolo[3,4-d]pyridazin-1-yl)oxy-acetamide] | 181 ± 8.7 µM | Normal morphology of fibroblasts-elongated cells, single granular cells in 1 of 10 assessed fields of view. | 271 to 272 °C | 91.5 ± 5.1 µM | 24.5 ± 2.1 µM | 0.27 | 13.7 ± 0.07 µM | 
Cc1ccc(/C=N/NC(=O)COc2nn(C)c(=O)c3c(C)n(-c4cccc(Cl)c4)c(C)c23)cc1 [Compound 7c, 2-[6-(3-chlorophenyl)-3,5,7-trimethyl-4-oxo-pyrrolo[3,4-d]pyridazin-1-yl]oxy-N-[(Z/E)-p-tolylmethyleneamino]acetamide] | 81.6 ± 5.1 µM | Cells with an elongated shape characteristic of fibroblasts, the granularities were observed in 3–5 fields of view from 10 analyzed fields. | 248 to 250 °C |  | 22.7 ± 2.5 µM |  | 13.3 ± 0.02 µM | does not affect the COX-1 isoform
